Biological target: T1, Human Factor D (Homo sapiens, UniProt P00746)
T1 construct: purified from human serum; purchased Complement Technology, Inc; host or cells: human serum (natural protein, not recombinant)
Assay: Human Factor D Assay
Type: biochemical
Conditions: Table 3; Human Factor D 80 nM, substrate Z-L-Lys-SBzl; read-out: (IC50 (Stars))
Summary of the method: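 Serum-purified factor D (80 nM final) preincubated 5 min at room temperature with compound in 50 mM Tris, 1 M NaCl, pH 7.5. Reaction started with 100 μM Z-L-Lys-SBzl plus 100 μM DTNB; A405 read every 30 s for 30 min; IC50 by nonlinear regression of rates.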

T1 sequence (P00746 26-253): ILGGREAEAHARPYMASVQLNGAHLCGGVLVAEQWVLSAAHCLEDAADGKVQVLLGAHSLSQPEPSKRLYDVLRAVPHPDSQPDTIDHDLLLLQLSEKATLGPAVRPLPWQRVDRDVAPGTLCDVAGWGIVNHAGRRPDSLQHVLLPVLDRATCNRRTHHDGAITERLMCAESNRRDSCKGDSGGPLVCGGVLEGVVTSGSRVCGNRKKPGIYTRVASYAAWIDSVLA

Row | Compound | IC50 [nM]
1 | CC(=O)c1nn(CC(=O)N2[C@@H]3C[C@@H]3C[C@H]2C(=O)Nc2nc(Br)ccc2C)c2ccc(Oc3ncc(C)cn3)cc12 [Compound 173, (1R,3S,5R)-2-(2-(3-Acetyl-5-((5-methylpyrimidin-2-yl)oxy)-1H-indazol-1-yl)acetyl)-N-(6-bromo-3-methylpyridin-2-yl)-2-azabicyclo[3.1.0]hexane-3-carboxamide] | < 1000
2 | CC(=O)c1nn(CC(=O)N2[C@@H]3C[C@@H]3C[C@H]2C(=O)Nc2ccc(F)c(Br)n2)c2ccc(Oc3ncc(C)cn3)cc12 [Compound 177, (1R,3S,5R)-2-(2-(3-Acetyl-5-((5-methylpyrimidin-2-yl)oxy)-1H-indazol-1-yl)acetyl)-N-(6-bromo-5-fluoropyridin-2-yl)-2-azabicyclo[3.1.0]hexane-3-carboxamide] | < 1000
3 | CCOP(=O)(COc1ccc2c(c1)c(C(N)=O)cn2CC(=O)N1[C@@H]2CC[C@@H](C2)[C@H]1C(=O)Nc1cccc(C)n1)OCC [Compound 182, diethyl (((3-Carbamoyl-1-(2-((1R,3S,4S)-3-((6-methylpyridin-2-yl)carbamoyl)-2-azabicyclo[2.2.1]heptan-2-yl)-2-oxoethyl)-1H-indol-5-yl)oxy)methyl)phosphonate] | > 10000
4 | Cc1cccc(NC(=O)[C@@H]2[C@H]3CC[C@H](C3)N2C(=O)Cn2cc(C(N)=O)c3cc(OCP(=O)(O)O)ccc32)n1 [Compound 183, (((3-carbamoyl-1-(2-((1R,3S,4S)-3-((6-methylpyridin-2-yl)carbamoyl)-2-azabicyclo[2.2.1]heptan-2-yl)-2-oxoethyl)-1H-indol-5-yl)oxy)methyl)phosphonic acid] | > 10000

Other lines, results leading:

Row | IC50 [nM] | Compound
5 | < 1000 | COc1cc(Br)nc(NC(=O)[C@@H]2C[C@@H](F)CN2C(=O)Cn2nc(C(C)=O)c3cc(Oc4ncc(C)cn4)ccc32)c1 [Compound 174, (2S,4R)-1-(2-(3-Acetyl-5-((5-methylpyrimidin-2-yl)oxy)-1H-indazol-1-yl)acetyl)-N-(6-bromo-4-methoxypyridin-2-yl)-4-fluoropyrrolidine-2-carboxamide]
6 | < 1000 | CC(=O)c1nn(CC(=O)N2C[C@H](F)C[C@H]2C(=O)Nc2cccc(Br)n2)c2ccc(Oc3cnc(C)cn3)cc12 [Compound 175, (2S,4R)-1-(2-(3-Acetyl-5-((5-methylpyrazin-2-yl)oxy)-1H-indazol-1-yl)acetyl)-N-(6-bromopyridin-2-yl)-4-fluoropyrrolidine-2-carboxamide]
7 | < 1000 | CC(=O)c1nn(CC(=O)N2C[C@H](F)C[C@H]2C(=O)Nc2ccc(F)c(Br)n2)c2ccc(Oc3ncc(C)cn3)cc12 [Compound 176, (2S,4R)-1-(2-(3-Acetyl-5-((5-methylpyrimidin-2-yl)oxy)-1H-indazol-1-yl)acetyl)-N-(6-bromo-5-fluoropyridin-2-yl)-4-fluoropyrrolidine-2-carboxamide]
8 | < 1000 | CC(=O)c1nn(CC(=O)N2C[C@H](F)C[C@H]2C(=O)Nc2ccc(F)c(Br)n2)c2ccc(Oc3cnc(C)cn3)cc12 [Compound 178, (2S,4R)-1-(2-(3-Acetyl-5-((5-methylpyrazin-2-yl)oxy)-1H-indazol-1-yl)acetyl)-N-(6-bromo-5-fluoropyridin-2-yl)-4-fluoropyrrolidine-2-carboxamide]
9 | < 1000 | CC(=O)c1nn(CC(=O)N2C[C@H](F)C[C@H]2C(=O)Nc2nc(Br)ccc2C)c2ccc(Oc3cnc(C)cn3)cc12 [Compound 179, (2S,4R)-1-(2-(3-Acetyl-5-((5-methylpyrazin-2-yl)oxy)-1H-indazol-1-yl)acetyl)-N-(6-bromo-3-methylpyridin-2-yl)-4-fluoropyrrolidine-2-carboxamide]
10 | < 1000 | CC(=O)c1nn(CC(=O)N2C[C@H](F)C[C@H]2C(=O)Nc2cccc(Br)n2)c2ccc(Oc3cc(C)ncn3)cc12 [Compound 180, (2S,4R)-1-(2-(3-Acetyl-5-((6-methylpyrimidin-4-yl)oxy)-1H-indazol-1-yl)acetyl)-N-(6-bromopyridin-2-yl)-4-fluoropyrrolidine-2-carboxamide]
